≈ marks a conversion by molar mass, not a printed value.
How the values were obtained:
[1] = Aqueous solubility assay, Protocol A, nephelometry method; type: physicochemical; settings: PBS with 5% DMSO, aqueous with cosolvent or surfactant or cyclodextrin, kinetic from dmso stock, PBS pH 7.4, 5% DMSO, 23° C.
Method: Aqueous solubility of compounds was determined by nephelometry or by shake-flask method as follows:
Protocol A, Nephelometry Method:
Solubility of compounds was measured in PBS (pH 7.4), 5% DMSO at 23° C. Nepheloskan Ascent (Thermo Electron Corporation) nephelometer was used for measurement of light scattering. Tested compounds were dissolved in DMSO to 10 mM. Prior to measurement the compounds were further diluted with PBS in the wells to final compound concentrations of 100, 70, 50, 35, 25, 17, 12 and <10 μg/ml.
The plates were incubated at room temperature for 24 hours to reach equilibrium and the scattered light was measured. Assay validation: Aqueous solubility of acetylsalicylic acid was determined to validate the assay. […] Aqueous solubilities of examples and reference compounds are listed below in Table 2.

[2] = Determination of pharmacokinetic parameters in mice (oral cassette dosing); type: in vivo; settings: C57BL/6 mice, po 5 mg/kg; for Vd: elimination phase; for CL: total body clearance; for Cmax / Tmax / AUC(0-inf) / concentration at 10 min / concentration at 30 min / concentration at 60 min / concentration at 120 min / concentration at 240 min / concentration at 480 min: male, mouse, plasma; for AUC(0-inf): extrapolated to infinity; for concentration at 10 min / concentration at 30 min / concentration at 60 min / concentration at 120 min / concentration at 240 min / concentration at 480 min: cassette, read-out: mean plasma conc.
Method: FIG. 1: Graphical depiction of pharmacokinetic data of compound A compared to example 3. Compound plasma concentrations (logarithmic scale) are plottet against sampling timepoints. Conditions: C57BL/6 mice, oral cassette dosing, 5 mg/Kg in 10% HPBCD/20 mM phosphate buffer.
Determination of Pharmacokinetic Parameters in Mice
Data on the rate and extent of absorption of the test compounds were generated. Compounds were applied perorally at 5 mg/kg each to male 8 weeks old C57BL/6 mice and plasma concentrations of the test items were determined by LC-MS/MS. A solution of […] of each test item was produced by diluting them in the vehicle, 10% HPBCD (hydroxypropyl-beta-cyclodextrin) in 20 mM phosphate buffer pH 7.0 (v/w). These solutions were stirred overnight at room temperature and heated to 60° C. for 10 minutes, resulting in a full solubilization. Then, an identical volume of each solution were mixed together to constitute the cassette. The application was performed by administrating the solution perorally to the mice, with an application volume of 10 ml/kg. […] Blood samples were obtained by sacrificing three animals for each time point (10, 30, 60, 120, 240, and 480 min) followed by cardiac puncture. Blood samples were treated with Li-heparin during collection procedure and stored on ice until centrifugation at 645 g (5 min, 4° C.). Plasma was harvested and kept at −20° C. until being assayed. To 50 μl of mouse plasma sample 6 μl acetonitrile containing an internal standard was added. Samples were vigorously shaken and centrifuged for 10 minutes at 6000 g and 20° C. An aliquot of the particle-free supernatant was transferred to 200 μl sampler vials and subsequently subjected to LC MS/MS for quantification.
Concentrations were plotted against sampling time for illustrating higher plasma levels of example 3 compared to plasma levels of compound A. The results are illustrated in FIG. 1.
PK calculation: The pharmacokinetic analysis of raw data was performed by applying a non-compartment model using the PK Solutions 2.0 software (Summit Research Services, Montrose, USA). All given parameters are model independent and were obtained by trapezoid area calculation and have the following meaning:
Cmax obs: maximal measured concentration;
tmax obs: time to reach the maximum measured concentration;
AUC0-∞: area under the concentration-time curve extrapolated to infinity;
Vd: volume of distribution during elimination phase;
CL: total body clearance.

solubility at 24 h [1] | Vd [2] | CL [2] | Cmax [2] | Tmax [2] | AUC(0-inf) [2] | concentration at 10 min [2] | concentration at 30 min [2] | concentration at 60 min [2] | concentration at 120 min [2] | concentration at 240 min [2] | concentration at 480 min [2] | melting point | Structure (SMILES)
24 µM (≈ 12 µg/mL) | 110.078 L/kg | 343 mL/min/kg | 120 ng/mL | 10 min | 242 ng·h/mL | 120 ng/mL | 102 ng/mL | 43 ng/mL | 24 ng/mL | 15 ng/mL | 8 ng/mL |  | CC(C)c1onc(-c2c(Cl)cccc2Cl)c1COc1ccc(Oc2ccc(C(=O)O)cc2)cc1 [Compound A, reference compound]
 | 9.271 L/kg | 59 mL/min/kg | 904 ng/mL | 10 min | 1410 ng·h/mL | 904 ng/mL | 867 ng/mL | 291 ng/mL | 214 ng/mL | 63 ng/mL | 20 ng/mL | 74 to 76 °C | Cc1cc(OCc2c(-c3c(Cl)cccc3Cl)noc2C(C)C)cnc1Oc1ccc(C(=O)O)cc1 [Example 3, 4-(5-((3-(2,6-Dichlorophenyl)-5-isopropylisoxazol-4-yl)methoxy)-3-methylpyridin-2-yloxy)benzoic acid]

Source: US8193192B2, “Heterocyclic FXR binding compounds” (Phenex Pharmaceuticals AG, priority 2006, dated 2012)
